From article PMC10876507, “Chelator impact: investigating the pharmacokinetic behavior of copper-64 labeled PD-L1 radioligands” (EJNMMI Radiopharmacy and Chemistry, 2024)

What was measured:
[1] = system: PC3 PD-L1 and PC3 mock cells; assay: In vitro cell uptake in PC3 PD-L1 and PC3 mock cells; type: cell-based, human; details: for incubation time at which cell uptake plateaued: PC3 cells, incubation 30–240 min at or close to KD; for uptake/binding to PC3 PD-L1-positive cells vs PC3 mock cells: mixed-effects model, main effect of cell type
Protocol: Both the target-positive (PC3 PD-L1) and negative cells (PC3 mock) were seeded at ~60,000 cells per well two days prior to the experiment. At the time of experiment, cells were then incubated with the respective radioligand at or close to the KD (determined by saturation binding) in binding buffer. For each timepoint and radiotracer (30, 60, 120 and 240 min), a single plate was used (with triplicate measurements). Additional controls per plate included plastic retention, nonspecific binding [excess of unlabeled BMS-1166 (in DMSO, resulting in 0.03% v/v) for both PC3 PD-L1 and PC3 mock] and cells incubated with PBS only (protein control). Following incubation, cells were washed twice in ice-cold binding buffer, lysed in 500 μL of 0.1 M NaOH + 1% SDS and radioactivity was measured in a gamma counter (Perkin Elmer Wizard 1480) and decay corrected to a reference time (end of radiolabeling).
Protein content was determined for each timepoint and cell type by BCA assay.
Figure S27: Cell uptake (fmol/mg protein) of [64Cu]Cu-14&16 into either PC3 PD-L1 or PC3 mock cells. Uptake of both […]
effects model. Binding to PC3 mock cells is similar to that of PC3 PD-L1 and PC3 mock cells blocked with an excess of […]

[2] = Proteolytic stability in human serum at 37 °C, radio-HPLC; type: in vitro ADME; details: 48 h
Protocol: For proteolytic stability studies, a solution of the radiolabeled compound was diluted with human serum in a ratio of 1:10. This mixture then underwent incubation at 37 °C while being shaken at 300 rpm. At each designated timepoint (1, 24 and 48 h), an aliquot was withdrawn and added to a detergent solution (water with 20% v/v EtOH, 5% v/v 5 mM aqueous EDTA, 0.5% v/v Triton X-100, 0.1% m/v saponin, 0.05% v/v 0.5 mM aqueous o-phenanthroline) in a ratio of 1:2 for precipitation of serum proteins. The mixture was cooled on ice for 5 min, followed by centrifugation at 12,000 g for 5 min. A minor portion of the resulting supernatant was subjected to analytical radio-HPLC (reversed-phase, Phenomenex Jupiter 300 C-18, 5 µm, 4.6 × 250 mm) with 10–95% acetonitrile (0.1% TFA) in water (0.1% TFA) in a linear gradient over 15 min, 1 mL/min, γ-detection). The assessment and graphical representations were performed using OriginPro® 9.0.

[3] = n-octanol/PBS pH 7.4, shake flask
Protocol: The n-octanol/water distribution coefficients for each radioligand were determined using the shake-flask method. Each experiment was conducted in triplicate. To initiate the experiment, 30 µL of the labeling mixture was combined with 570 µL of PBS (pH 7.4) and 600 µL of n-octanol in a 1.5 mL Eppendorf-Tube. The resulting mixture was shaken at room temperature at 1500 rpm for 5 min before undergoing centrifugation. An aliquot was extracted from each phase, and radioactivity was measured on a γ-counter (ISOMED 2160). Subsequently, mean values were calculated and adjusted for background activity. The log D7.4 value was determined utilizing the equation: logD7.4=logAn-octanol/APBS

SMILES	incubation time at which cell uptake plateaued [1]	incubation time at which cell uptake plateaued ([1]; listed as [64Cu]Cu-14)	uptake/binding to PC3 PD-L1-positive cells vs PC3 mock cells ([1]; listed as [64Cu]Cu-14)	intact radioligand after incubation in human serum [2]	Log D7.4 [3]	uptake/binding to PC3 PD-L1-positive cells vs PC3 mock cells ([1]; listed as [64Cu]Cu-16)
Cc1c(COc2cc(OCc3cncc(S(C)(=O)=O)c3)c(CN[C@@H](CS(=O)(=O)O)C(=O)NCCS(=O)(=O)O)cc2Br)cccc1-c1cccc(OCc2cn(CCCN3CCN(C(=O)[C@H](CS(=O)(=O)O)NC(=O)CC[C@H](C(=O)[O-])N4CCN(CC(=O)[O-])CCN(CC(=O)[O-])CC4)CC3)nn2)c1C.[64Cu+2] [[^64Cu]Cu-14]	60 min	≤ 60 min	significant main effect of target expression	over 95%	–3.00 ± 0.03	–
Cc1c(COc2cc(OCc3cncc(S(C)(=O)=O)c3)c(CN[C@@H](CS(=O)(=O)O)C(=O)NCCS(=O)(=O)O)cc2Br)cccc1-c1cccc(OCc2cn(CCCN3CCN(C(=O)[C@H](CS(=O)(=O)O)NC(=O)CCCC(=O)NC45CNCCNCC(N)(CNCCNC4)CNCCNC5)CC3)nn2)c1C.[64Cu+2] [[^64Cu]Cu-16]	–	–	–	89%	–2.79 ± 0.02	significant main effect of target expression
